Measured values: publication PMC4058118, “Impact of Wines and Wine Constituents on Cyclooxygenase-1, Cyclooxygenase-2, and 5-Lipoxygenase Catalytic Activity” (Mediators of Inflammation, 2014)
Read-outs that look alike come from different tables or passages of the source. One block for each compound: values may come before it.

Key:
[1] = target: T1, COX-1 from ram seminal vesicles (Ovis aries, UniProt P05979); assay: COX-1 assay (PGE2 formation, ELISA); assay type: biochemical
T1 construct: COX-1 from ram seminal vesicles; purchased Sigma-Aldrich (Czech Republic); host or cells: ram seminal vesicles (tissue-derived enzyme)
T1 sequence (P05979 25-600): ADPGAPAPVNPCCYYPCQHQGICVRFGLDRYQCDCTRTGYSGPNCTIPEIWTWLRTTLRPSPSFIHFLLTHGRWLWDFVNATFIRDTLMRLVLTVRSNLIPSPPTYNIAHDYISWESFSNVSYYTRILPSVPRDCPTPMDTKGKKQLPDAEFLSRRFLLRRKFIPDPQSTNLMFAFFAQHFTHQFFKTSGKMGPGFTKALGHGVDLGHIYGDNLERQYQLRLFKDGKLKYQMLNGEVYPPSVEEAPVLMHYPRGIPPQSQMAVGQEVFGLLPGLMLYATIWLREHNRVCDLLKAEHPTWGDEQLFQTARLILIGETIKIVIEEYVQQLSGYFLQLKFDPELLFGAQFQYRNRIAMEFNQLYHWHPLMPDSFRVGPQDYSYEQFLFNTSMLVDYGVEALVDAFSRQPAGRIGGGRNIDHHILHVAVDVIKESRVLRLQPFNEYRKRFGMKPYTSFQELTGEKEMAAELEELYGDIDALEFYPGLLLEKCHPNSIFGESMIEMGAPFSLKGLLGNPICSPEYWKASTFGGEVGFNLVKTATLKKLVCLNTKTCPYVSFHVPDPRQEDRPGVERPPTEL

human recombinant COX-2 = target: T2, human recombinant COX-2 (Homo sapiens, UniProt P35354); assay: COX-2 assay (PGE2 formation, ELISA); assay type: biochemical; settings: for IC50: read-out: IC50 COX-2 (dash)
T2 construct: purchased Sigma-Aldrich (Czech Republic)
T2 sequence (P35354 18-604): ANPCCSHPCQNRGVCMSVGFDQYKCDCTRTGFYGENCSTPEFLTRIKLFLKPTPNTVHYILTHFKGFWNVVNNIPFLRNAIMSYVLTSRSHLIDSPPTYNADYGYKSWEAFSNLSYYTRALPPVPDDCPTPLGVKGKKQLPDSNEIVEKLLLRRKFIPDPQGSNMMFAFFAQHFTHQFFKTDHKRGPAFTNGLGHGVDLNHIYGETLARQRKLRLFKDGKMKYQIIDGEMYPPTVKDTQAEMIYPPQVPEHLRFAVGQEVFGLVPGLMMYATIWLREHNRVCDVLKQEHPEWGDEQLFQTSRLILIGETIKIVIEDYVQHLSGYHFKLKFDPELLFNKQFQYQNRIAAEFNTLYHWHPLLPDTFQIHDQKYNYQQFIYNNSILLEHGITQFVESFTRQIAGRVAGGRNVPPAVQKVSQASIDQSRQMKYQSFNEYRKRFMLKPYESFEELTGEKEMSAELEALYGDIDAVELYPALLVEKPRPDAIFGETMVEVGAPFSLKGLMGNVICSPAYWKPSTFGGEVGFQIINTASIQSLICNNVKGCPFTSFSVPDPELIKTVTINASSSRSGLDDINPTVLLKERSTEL

5-LOX = target: T3, 5-LOX (Homo sapiens, UniProt P09917); assay: 5-LOX assay (LTB4 formation in cells from buffy coat, ELISA); assay type: cell-based
T3 construct: endogenous in cells; host or cells: leukocytes isolated from buffy coat of healthy donors
T3 sequence (P09917 1-674): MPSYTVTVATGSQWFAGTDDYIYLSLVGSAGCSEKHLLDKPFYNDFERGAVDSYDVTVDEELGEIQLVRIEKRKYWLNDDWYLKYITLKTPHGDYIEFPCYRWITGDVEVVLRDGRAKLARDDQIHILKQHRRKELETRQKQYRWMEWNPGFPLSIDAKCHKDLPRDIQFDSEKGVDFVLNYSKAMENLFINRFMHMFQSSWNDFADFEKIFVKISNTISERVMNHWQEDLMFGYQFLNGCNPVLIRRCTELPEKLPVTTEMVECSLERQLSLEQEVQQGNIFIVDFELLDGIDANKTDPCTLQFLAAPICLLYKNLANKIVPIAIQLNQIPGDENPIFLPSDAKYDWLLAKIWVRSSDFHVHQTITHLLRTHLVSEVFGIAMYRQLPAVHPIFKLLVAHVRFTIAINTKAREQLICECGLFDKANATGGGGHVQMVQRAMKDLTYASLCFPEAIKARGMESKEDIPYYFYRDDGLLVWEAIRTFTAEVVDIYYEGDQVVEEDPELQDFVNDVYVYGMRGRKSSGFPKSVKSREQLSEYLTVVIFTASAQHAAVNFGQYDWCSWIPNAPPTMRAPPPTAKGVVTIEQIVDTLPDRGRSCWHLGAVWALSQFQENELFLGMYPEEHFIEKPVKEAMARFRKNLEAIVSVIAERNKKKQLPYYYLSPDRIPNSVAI

COX-1 = settings: cited from earlier work
COX-2 = settings: cited from earlier work
[2] = dash = IC50 > 50 μM, read-out: IC50 COX-1 (dash)
[3] = mean ± SD, read-out: IC50 ± SD 5-LOX
[4] = mean ± SD, read-out: IC50 ± SD COX-1

IC50 [1, 2]: > 50 µM | IC50 (human recombinant COX-2): > 50 µM | IC50 (5-LOX; [3]): 2.25 ± 1.75 µM
SMILES: O=c1cc(-c2ccc(O)c(O)c2)oc2cc(O)cc(O)c12 [Luteolin, luteolin]

IC50 [1, 4]: 43.8 ± 18.8 µM | IC50 (human recombinant COX-2): > 50 µM | IC50 (5-LOX; read-out: IC50 5-LOX (dash)): > 50 µM
SMILES: O=c1c(O)c(-c2ccc(O)cc2)oc2cc(O)cc(O)c12 [Kaempferol, kaempferol]

SMILES: Oc1cc(O)c2c(c1)O[C@H](c1ccc(O)c(O)c1)[C@@H](O)C2 [(+)-catechin]
COX-1 inhibitory activity ([1]; 50 μM concentration): inactive | COX-2 inhibitory activity (human recombinant COX-2; 50 μM concentration): inactive

SMILES: O=c1c(O)c(-c2ccc(O)c(O)c2)oc2cc(O)cc(O)c12 [Quercetin, quercetin]
IC50 [1, 4]: 43.8 µM | IC50 ([1]; read-out: IC50 COX-1 (dash)): > 50 µM | IC50 (human recombinant COX-2): > 50 µM

SMILES: O=c1c(O)c(-c2cc(O)c(O)c(O)c2)oc2cc(O)cc(O)c12 [Myricetin, myricetin]
IC50 [1, 2]: > 50 µM | IC50 (human recombinant COX-2): > 50 µM | IC50 (5-LOX): 4.02 ± 2.37 µM

SMILES: Oc1cc(O)cc(/C=C/c2ccc(O)c(O)c2)c1 [Piceatannol, piceatannol]
IC50 [1]: > 50 µM | IC50 (human recombinant COX-2): > 50 µM | IC50 (5-LOX; [3]): 0.76 ± 0.35 µM | IC50 (COX-1; ref 5 (Murias et al.)): 4.71 µM | inhibition of COX-1 (COX-1; ref 38 (Lee et al.)): no inhibition | IC50 (COX-1; ref 39 (Gerhäuser et al.)): 81.4 µM | IC50 (COX-2; ref 5 (Murias et al.)): 0.0113 µM | inhibition of COX-2 (COX-2; ref 38 (Lee et al.)): no inhibition

SMILES: Oc1ccc(/C=C/c2cc(O)cc(O)c2)cc1 [Resveratrol, trans-resveratrol]
IC50 [1, 4]: 2.27 ± 1.17 µM | IC50 (5-LOX; read-out: IC50 5-LOX (dash)): > 50 µM
